Data published in patent US9987216B2, “Plant fat composition for cosmetic preparation” (priority 2016, dated 2018).

Legend:
[1] = DPPH radical scavenging (antioxidative effect); conditions: concentration of 10%; 30 minutes in the dark, absorbance 540 nm
Description: DPPH (2,2-diphenyl-1-picryl-hydrazyl) is a purple-colored stable free radical substance that receives hydrogens from an antioxidant to undergo decolorization. Upon exposure to an antioxidant, the DPPH acts as a […] the antioxidant and becomes removed of free radicals, resulting in decolorization, which makes it possible to evaluate the radical-scavenging activity.
Vitamin E (acetate) was used as a control.
(a) Prepare a 0.2 mM DPPH reagent dissolved in n-hexane.
(b) Prepare test samples by concentration.
(c) Add 100 μl of the reagent and 100 μl of each sample in four wells of a 96-well test plate.
(d) Add 100 μl of the reagent and 100 μl of a solvent in four wells to remove the blank value.
(e) Kept in the dark for 30 minutes at the room temperature.
(f) Measure the absorbance at 540 nm with an ELISA reader (TECAN microplate reader).
Analysis Method (Calculation Method) DPPH radical scavenging ability (%)=[1−(absorbance of sample/absorbance of blank)]×100

[2] = Journal of the American College of Toxicology Vol. 6, No. 3, 1987; cited from earlier work
[3] = tested on: skin on the inner side of the upper arm; experiment: Skin irritation in the test subjects of the TEWL test; assay type: in vivo; conditions: all test subjects (n=6), 100 μl on the skin
Description: 100 μl of each product was applied to the skin on the inner side of the upper arm and kept absorbed into the skin for 5 minutes. The transepidermal water loss was then measured at predetermined intervals. In addition, all the test subjects (n=6) had no irritation to both the plant fat composition of the present invention and the plant-derived squalane.

Row | Compound | safety in use for cosmetic formulations [2] | further results
1 | CC(=O)Oc1c(C)c(C)c2c(c1C)CCC(C)(CCC[C@H](C)CCC[C@H](C)CCCC(C)C)O2 (stereo partly shown) [vitamin E, Vitamin E (acetate)] |  | DPPH radical scavenging activity [1]: 5%
2 | CCCCCCCCCCCC(=O)O [lauric acid] | safe | 
3 | CCCCCCCCCCCCCC(=O)O [myristic acid] | safe | 
4 | CC(C)CCCC(C)CCCC(C)CCCCC(C)CCCC(C)CCCC(C)C (stereo not shown) [plant-derived squalane, squalane] |  | skin irritation [3]: no irritation
5 | CCCCCCCCCCCCCCCCCC(=O)O [stearic acid] | safe | 
6 | CCCCCCCCCCCCCCCC(=O)O [palmitic acid] | safe | 
7 | CCCCCCCC/C=C\CCCCCCCC(=O)O [oleic acid] | safe | 
